Measured values from PubChem BioAssay AID2060484 (Molecular Pharmacology Branch, DTP, NCI, 2025).

System: SUM149PT spheroids with HUVEC/MSC, viability
Assay: Anticancer human tumor SUM149PT cell line growth inhibition [GQUAD];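 note: spheroids exposed to drugs for seven days before readout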;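 for viability, T/C: percent viability relative to DMSO vehicle control taken as 100%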
Details: for IC50: curve of first compound; for viability, T/C: stronger effect = lower value
How it was run: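 Tumor cells were grown as complex spheroids with HUVEC endothelial cells and mesenchymal stem cells as stroma. G-quadruplex stabilizers were combined with targeted agents over half-log dilutions from near the clinical Cmax, or from 10 microM.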

[1] = second compound 0.0316 µM, first compound 0.0316 µM
[2] = second compound 0.0316 µM, first compound 0.1 µM
[3] = second compound 0.0316 µM, first compound 0.316 µM
[4] = second compound 0.0316 µM, first compound 1 µM
[5] = second compound 0.0316 µM, first compound 3.16 µM
[6] = second compound 0.0316 µM, first compound 10 µM
[7] = second compound 0.1 µM, first compound 0.0316 µM
[8] = second compound 0.1 µM, first compound 0.1 µM
[9] = second compound 0.1 µM, first compound 0.316 µM
[10] = second compound 0.1 µM, first compound 1 µM
[11] = second compound 0.1 µM, first compound 3.16 µM
[12] = second compound 0.1 µM, first compound 10 µM
[13] = second compound 0.316 µM, first compound 0.0316 µM
[14] = second compound 0.316 µM, first compound 0.1 µM
[15] = second compound 0.316 µM, first compound 0.316 µM
[16] = second compound 0.316 µM, first compound 1 µM
[17] = second compound 0.316 µM, first compound 3.16 µM
[18] = second compound 0.316 µM, first compound 10 µM
[19] = second compound 1 µM, first compound 0.0316 µM
[20] = second compound 1 µM, first compound 0.1 µM
[21] = second compound 1 µM, first compound 0.316 µM
[22] = second compound 1 µM, first compound 1 µM
[23] = second compound 1 µM, first compound 3.16 µM
[24] = second compound 1 µM, first compound 10 µM
[25] = second compound 3.16 µM, first compound 0.0316 µM
[26] = second compound 3.16 µM, first compound 0.1 µM
[27] = second compound 3.16 µM, first compound 0.316 µM
[28] = second compound 3.16 µM, first compound 1 µM
[29] = second compound 3.16 µM, first compound 3.16 µM
[30] = second compound 3.16 µM, first compound 10 µM
[31] = second compound 10 µM, first compound 0.0316 µM
[32] = second compound 10 µM, first compound 0.1 µM
[33] = second compound 10 µM, first compound 0.316 µM
[34] = second compound 10 µM, first compound 1 µM
[35] = second compound 10 µM, first compound 3.16 µM
[36] = second compound 10 µM, first compound 10 µM

## C#Cc1c(F)ccc2cc(O)cc(-c3ncc4c(N5CC6CCC(C5)N6)nc(OCC56CCCN5CC(F)C6)nc4c3F)c12 (stereo unspecified) + Cc1cnc(CNC(=O)c2c(=O)c3ccc(N4CCCN(C)CC4)nc3n3c2sc2ccccc23)cn1
Second compound 0.0316 µM
  IC50: 545 nM
Second compound 0.1 µM
  IC50: 243 nM
Second compound 0.316 µM
  IC50: 42.2 nM
Second compound 1 µM
  IC50: < 31.6 nM
Second compound 3.16 µM
  IC50: < 31.6 nM
Second compound 10 µM
  IC50: < 31.6 nM
[1]
  viability, T/C: 90.1%
[2]
  viability, T/C: 65.5%
[3]
  viability, T/C: 66.2%
[4]
  viability, T/C: 35.1%
[5]
  viability, T/C: 36.6%
[6]
  viability, T/C: 29%
[7]
  viability, T/C: 51.6%
[8]
  viability, T/C: 61.4%
[9]
  viability, T/C: 45.2%
[10]
  viability, T/C: 38.9%
[11]
  viability, T/C: 30.7%
[12]
  viability, T/C: 25.5%
[13]
  viability, T/C: 48.6%
[14]
  viability, T/C: 52.2%
[15]
  viability, T/C: 37.9%
[16]
  viability, T/C: 34.1%
[17]
  viability, T/C: 28.1%
[18]
  viability, T/C: 22.9%
[19]
  viability, T/C: 34.1%
[20]
  viability, T/C: 38.6%
[21]
  viability, T/C: 33.4%
[22]
  viability, T/C: 27.1%
[23]
  viability, T/C: 24.2%
[24]
  viability, T/C: 20.1%
[25]
  viability, T/C: 35.5%
[26]
  viability, T/C: 32.1%
[27]
  viability, T/C: 31.4%
[28]
  viability, T/C: 25.6%
[29]
  viability, T/C: 23.3%
[30]
  viability, T/C: 19.6%
[31]
  viability, T/C: 0.13%
[32]
  viability, T/C: 2.68%
[33]
  viability, T/C: 11.3%
[34]
  viability, T/C: 0.63%
[35]
  viability, T/C: 2.15%
[36]
  viability, T/C: 0.92%

## CC(=O)O[C@H]1C(=O)[C@@]2(C)[C@H]([C@H](OC(=O)c3ccccc3)[C@]3(O)C[C@H](OC(=O)[C@H](O)[C@@H](NC(=O)c4ccccc4)c4ccccc4)C(C)=C1C3(C)C)[C@]1(OC(C)=O)CO[C@@H]1C[C@@H]2O + Cc1cnc(CNC(=O)c2c(=O)c3ccc(N4CCCN(C)CC4)nc3n3c2sc2ccccc23)cn1
Second compound 0.0316 µM
  IC50: < 31.6 nM
Second compound 0.1 µM
  IC50: < 31.6 nM
Second compound 0.316 µM
  IC50: < 31.6 nM
Second compound 1 µM
  IC50: < 31.6 nM
Second compound 3.16 µM
  IC50: < 31.6 nM
Second compound 10 µM
  IC50: < 31.6 nM
[1]
  viability, T/C: 25.8%
[2]
  viability, T/C: 16.3%
[3]
  viability, T/C: 15.5%
[4]
  viability, T/C: 9.27%
[5]
  viability, T/C: 11.8%
[6]
  viability, T/C: 16.7%
[7]
  viability, T/C: 26.2%
[8]
  viability, T/C: 26.1%
[9]
  viability, T/C: 13.4%
[10]
  viability, T/C: 13.1%
[11]
  viability, T/C: 14.7%
[12]
  viability, T/C: 14.5%
[13]
  viability, T/C: 30.5%
[14]
  viability, T/C: 30.4%
[15]
  viability, T/C: 19%
[16]
  viability, T/C: 14.6%
[17]
  viability, T/C: 14.8%
[18]
  viability, T/C: 19%
[19]
  viability, T/C: 30.9%
[20]
  viability, T/C: 24.8%
[21]
  viability, T/C: 18%
[22]
  viability, T/C: 16.1%
[23]
  viability, T/C: 15.2%
[24]
  viability, T/C: 20.7%
[25]
  viability, T/C: 32.2%
[26]
  viability, T/C: 24.8%
[27]
  viability, T/C: 19.1%
[28]
  viability, T/C: 16.9%
[29]
  viability, T/C: 18%
[30]
  viability, T/C: 19.8%
[31]
  viability, T/C: 0.13%
[32]
  viability, T/C: 0.61%
[33]
  viability, T/C: 1.35%
[34]
  viability, T/C: 0.64%
[35]
  viability, T/C: 1.28%
[36]
  viability, T/C: 1.03%

## CC(C)(O)C1CCC(Nc2ccc3ncc(-c4cccc(C(F)(F)F)c4)n3n2)CC1 (stereo unspecified) + Cc1cnc(CNC(=O)c2c(=O)c3ccc(N4CCCN(C)CC4)nc3n3c2sc2ccccc23)cn1
Second compound 0.0316 µM
  IC50: 1090 nM
Second compound 0.1 µM
  IC50: 685 nM
Second compound 0.316 µM
  IC50: 349 nM
Second compound 1 µM
  IC50: < 31.6 nM
Second compound 3.16 µM
  IC50: < 31.6 nM
Second compound 10 µM
  IC50: < 31.6 nM
[1]
  viability, T/C: 72.8%
[2]
  viability, T/C: 69.2%
[3]
  viability, T/C: 58.2%
[4]
  viability, T/C: 57%
[5]
  viability, T/C: 32.6%
[6]
  viability, T/C: 29.5%
[7]
  viability, T/C: 57.3%
[8]
  viability, T/C: 63%
[9]
  viability, T/C: 67%
[10]
  viability, T/C: 43.9%
[11]
  viability, T/C: 26.2%
[12]
  viability, T/C: 24.3%
[13]
  viability, T/C: 52.9%
[14]
  viability, T/C: 50.8%
[15]
  viability, T/C: 47.9%
[16]
  viability, T/C: 44.6%
[17]
  viability, T/C: 22.5%
[18]
  viability, T/C: 25.8%
[19]
  viability, T/C: 43.7%
[20]
  viability, T/C: 43.6%
[21]
  viability, T/C: 37.9%
[22]
  viability, T/C: 37.3%
[23]
  viability, T/C: 18.9%
[24]
  viability, T/C: 17.4%
[25]
  viability, T/C: 32.9%
[26]
  viability, T/C: 34.7%
[27]
  viability, T/C: 32.5%
[28]
  viability, T/C: 32.1%
[29]
  viability, T/C: 18.5%
[30]
  viability, T/C: 1.21%
[31]
  viability, T/C: 0.27%
[32]
  viability, T/C: 2.83%
[33]
  viability, T/C: 2.02%
[34]
  viability, T/C: 1.99%
[35]
  viability, T/C: 2.14%
[36]
  viability, T/C: 1.18%
